Experiment [1] deals with recombinant human Mcl-1 (residues 171-327) / Bim interaction (Homo sapiens (Human), UniProt Q07820). As to the kind of experiment: biochemical. The settings on record: read-out: Mcl-1 HTRF IC50. The class given is binding. For orientation: In TR-FRET formats the signal depends on donor and acceptor labels being close together.
In experiment [2] the test system is human multiple myeloma cell line, OPM-2. As to the kind of experiment: Cell viability assay (OPM-2 10 FBS), CellTiter-Glo. The class given is cell-based. The gist of the method: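 Cells were seeded at 3000 cells/well in RPMI 1640 with 10% FBS and exposed to serially diluted compounds for 16 h at 37 °C, 5% CO2.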
For orientation: In ATP-based viability assays light output follows the ATP content of the culture.

Where [3] appears, read: TR-FRET, Mcl-1(171-327) / biotin-Bim (51-76).
The mark [4] stands for this setting: Homo sapiens, OPM-2, 16 h, read-out: OPM-2 10% FBS IC50 IP, OPM-2 cells, 10% FBS, 16 h, CellTiter-Glo.
Where [5] appears, read: read-out: OPM-2 10% FBS IC50 IP, OPM-2 cells, 10% FBS, 16 h, CellTiter-Glo.

Like-named read-outs stand apart in the source and are kept apart here.

Sequence of recombinant human Mcl-1 (residues 171-327) / Bim interaction (Q07820 171-327): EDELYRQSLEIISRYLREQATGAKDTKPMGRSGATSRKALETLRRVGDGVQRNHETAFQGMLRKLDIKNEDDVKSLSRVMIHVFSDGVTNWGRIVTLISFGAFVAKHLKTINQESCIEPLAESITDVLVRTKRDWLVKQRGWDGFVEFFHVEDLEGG

As usually defined, the IC50 is the concentration that gives 50% inhibition. Take `CCC(=O)C[C@]1(OC)/C=C/C[C@H](C)[C@@H](C)S(=O)(=O)NC(=O)c2ccc3c(c2)N(C[C@@H]2CC[C@H]21)C[C@@]1(CCCc2cc(Cl)ccc21)CO3` [Example 100457, (1S,3′R,6′R,7′S,8′E,11′S,12′R)-6-chloro-7′-methoxy-11′,12′-dimethyl-7′-(2-oxobutyl)-3,4-dihydro-2H,15′H-spiro[naphthalene-1,22′-[20]oxa[13]thia[1,14]diazatetracyclo [14.7.2.0~3,6~.0~19,24~]pentacosa[8,16,18,24]tetraen]-15′-one 13′,13′-dioxide]: the IC50 was determined as 0.331 nM in experiment [1] (setting [3]) and 967 nM in experiment [2] (setting [4]).

With `COCC[C@@H]1[C@@H](C)C/C=C/[C@@](CN2C[C@@H](C)N(C)[C@@H](C)C2)(OC)[C@@H]2CC[C@H]2CN2C[C@@]3(CCCc4cc(Cl)ccc43)COc3ccc(cc32)C(=O)NS1(=O)=O` [Example 191, (1S,3′R,6′R,7′R,8′E,11′S,12′R)-6-chloro-7′-methoxy-12′-(2-methoxyethyl)-11′-methyl-7′-(((3R,5S)-3,4,5-trimethyl-1-piperazinyl)methyl)-3,4-dihydro-2H,15′H-spiro[naphthalene-1,22′-[20]oxa[13]thia[1,14]diazatetracyclo [14.7.2.0~3,6~.0~19,24~]pentacosa[8,16,18,24]tetrae11]-15′-one 13′,13′-dioxide], the IC50 in experiment [1] (0.1 nM Mcl-1(171-327), 0.05 nM biotin-Bim (51-76)) came to 0.096 nM; in experiment [2] (Homo sapiens, OPM-2, 16 h, read-out: OPM-2 10% FBS IC50 IP, OPM-2 cells, 10% FBS, 16 h incubation) it was 42 nM.

Take `CO[C@@]1(C[C@@H](C)O)/C=C/C[C@H](C)[C@@H](C)S(=O)(=O)NC(=O)c2ccc3c(c2)N(C[C@@H]2CC[C@H]21)C[C@@]1(CCCc2cc(Cl)ccc21)CO3` [Example 100435, (1S,3′R,6′R,7′S,8′E,11′S,12′R)-6-chloro-7′-((2R)-2-hydroxypropyl)-7′-methoxy-11′,12′-dimethyl-3,4-dihydro-2H,15′H-spiro[naphthalene-1,22′-[20]oxa[13]thia[1,14]diazatetracyclo [14.7.2.0~3,6~.0~19,24~]pentacosa[8,16,18,24]tetraen]-15′-one 13′,13′-dioxide]: the 50% inhibitory concentration (IC50) is 0.055 nM in experiment [1] (setting [3]) and 305 nM in experiment [2] (setting [4]).

Turning to `CO[C@@]1(C2SCCCS2)/C=C/[C@H](C)[C@H](C)CS(=O)(=O)NC(=O)c2ccc3c(c2)N(C[C@@H]2CC[C@H]21)C[C@@]1(CCCc2cc(Cl)ccc21)CO3` [Example 100567, (1S,3′R,6′R,7′S,8′E,10′S,11′S)-6-chloro-7′-(1,3-dithian-2-yl)-7′-methoxy-10′,11′-dimethyl-3,4-dihydro-2H,15′H-spiro[naphthalene-1,22′-[20]oxa[13]thia[1,14]diazatetracyclo [14.7.2.0~3,6~.0~19,24~]pentacosa[8,16,18,24]tetraen]-15′-one 13′,13′-dioxide], the IC50 in experiment [1] (setting [3]) amounted to 0.125 nM; in experiment [2] (setting [4]), 249 nM.

`CCOC(=O)C(F)(F)[C@@]1(O)/C=C/C[C@H](C)[C@@H](C)S(=O)(=O)NC(=O)c2ccc3c(c2)N(C[C@@H]2CC[C@H]21)C[C@@]1(CCCc2cc(Cl)ccc21)CO3` [Example 100414, ethyl ((1S,3′R,6′R,7′R,8′E,11′S,12′R)-6-chloro-7′-hydroxy-11′,12′-dimethyl-13′,13′-dioxido-15′-oxo-3,4-dihydro-2H-spiro[naphthalene-1,22′-[20]oxa[13]thia[1,14]diazatetracyclo [14.7.2.0~3,6~.0~19,24~]pentacosa[8,16,18,24]tetraen]-7′-yl)(difluoro)acetate]: the results for the IC50 in experiment [1] (setting [3]) and in experiment [2] (setting [4]) were 0.626 nM and 1270 nM, respectively.

For the compound `C#C[C@@]1(OC)/C=C/C[C@H](C)[C@@H](C)S(=O)(=O)NC(=O)c2ccc3c(c2)N(C[C@@H]2CC[C@H]21)C[C@@]1(CCCc2cc(Cl)ccc21)CO3` [Example 100503, (1S,3′R,6′R,7′R,8′E,11′S,12′R)-6-chloro-7′-ethynyl-7′-methoxy-11′,12′-dimethyl-3,4-dihydro-2H,15′H-spiro[naphthalene-1,22′-[20]oxa[13]thia[1,14]diazatetracyclo [14.7.2.0~3,6~.0~19,24~]pentacosa[8,16,18,24]tetraen]-15′-one 13′,13′-dioxide], the IC50 in experiment [1] (setting [3]) is 0.493 nM; in experiment [2] (setting [4]), 706 nM.

`C[C@@H]1[C@@H](C)C/C=C/[C@@](O)([C@@H](C)C(=O)N(C)C)[C@@H]2CC[C@H]2CN2C[C@@]3(CCCc4cc(Cl)ccc43)COc3ccc(cc32)C(=O)NS1(=O)=O` (single isomer, unassigned) [Example 100124]: the 50% inhibitory concentration (IC50) in experiment [1] (setting [3]) was found to be 0.323 nM; in experiment [2] (setting [5]) it was 270 nM.

With `CN[C@@H]1C[C@H](C)[C@@H](C)S(=O)(=O)NC(=O)c2ccc3c(c2)N(C[C@@H]2CC[C@H]2[C@@](C)(O)C1)C[C@@]1(CCCc2cc(Cl)ccc21)CO3` [Example 100066, (1S,3′R,6′R,7′S,9′R,11′S,12′R)-6-chloro-7′-hydroxy-7′,11′,12′-trimethyl-9′-(methylamino)-3,4-dihydro-2H,15′H-spiro[naphthalene-1,22′-[20]oxa[13]thia[1,14]diazatetracyclo [14.7.2.0~3,6~.0~19,24~]pentacosa[16,18,24]trien]-15′-one 13′,13′-dioxide], the IC50 in experiment [1] (setting [3]) is 1.43 nM; in experiment [2] (setting [5]), 3820 nM.

Turning to `CO[C@@]1(C#CCCN2CCN3CCOC[C@@H]3C2)/C=C/C[C@H](C)[C@@H](C)S(=O)(=O)NC(=O)c2ccc3c(c2)N(C[C@@H]2CC[C@H]21)C[C@@]1(CCCc2cc(Cl)ccc21)CO3` [Example 100011, (1 S,3′R,6′R,7′S,8′E,11′S, 12′R)-6-chloro-7′-(4-((9aS)-hexahydropyrazino[2,1-c][1,4]oxazin-8(1H)-yl)-1-butyn-1-yl)-7′-methoxy-11′,12′-dimethyl-3,4-dihydro-2H,15′H-spiro[naphthalene-1,22′-[20]oxa[13]thia[1,14]diazatetracyclo[14.7.2.0-3,6˜.0˜19,24˜]pentacosa[8,16,18,24]tetraen]-15′-one 13′,13′-dioxide], the IC50 in experiment [1] (setting [3]) stood at 0.153 nM; in experiment [2] (setting [4]), 134 nM.

In the case of `C[C@@H]1[C@@H](C)C/C=C/[C@@](O)(c2cnccc2F)[C@@H]2CC[C@H]2CN2C[C@@]3(CCCc4cc(Cl)ccc43)COc3ccc(cc32)C(=O)NS1(=O)=O` (single isomer, unassigned) [Example 100536], the values for the concentration for half-maximal inhibition (IC50) in experiment [1] (setting [3]) and in experiment [2] (setting [4]) were 0.204 nM and 826 nM, respectively.

For the compound `CO[C@@]1(c2nccs2)/C=C/C[C@H](C)[C@@H](C)S(=O)(=O)NC(=O)c2ccc3c(c2)N(C[C@@H]2CC[C@H]21)C[C@@]1(CCCc2cc(Cl)ccc21)CO3` (single isomer, unassigned) [Example 100497], the IC50 was 0.064 nM in experiment [1] (setting [3]) and 106 nM in experiment [2] (setting [4]).

Consider `C[C@@H]1[C@@H](C)CCC[C@](O)(C2CCN(C)CC2)[C@@H]2CC[C@H]2CN2C[C@@]3(CCCc4cc(Cl)ccc43)COc3ccc(cc32)C(=O)NS1(=O)=O` [Example 100387, (1S,3′R,6′R,7′S,11′S,12′R)-6-chloro-7′-hydroxy-11′,12′-dimethyl-7′-(1-methyl-4-piperidinyl)-3,4-dihydro-2H,15′H-spiro[naphthalene-1,22′-[20]oxa[13]thia[1,14]diazatetracyclo [14.7.2.0~3,6~.0~19,24~]pentacosa[16,18,24]trien]-15′-one 13′,13′-dioxide], for which the IC50 in experiment [1] (setting [3]) amounted to 0.175 nM; in experiment [2] (setting [4]), 3760 nM.

For `CO[C@]1(CC(=O)C(C)C)/C=C/C[C@H](C)[C@@H](C)S(=O)(=O)NC(=O)c2ccc3c(c2)N(C[C@@H]2CC[C@H]21)C[C@@]1(CCCc2cc(Cl)ccc21)CO3` [Example 100363, (1S,3′R,6′R,7′R,8′E,11′S,12′R)-6-chloro-7′-methoxy-11′,12′-dimethyl-7′-(3-methyl-2-oxobutyl)-3,4-dihydro-2H,15′H-spiro[naphthalene-1,22′-[20]oxa[13]thia[1,14]diazatetracyclo [14.7.2.0~3,6~.0~19,24~]pentacosa[8,16,18,24]tetraen]-15′-one 13′,13′-dioxide], the figures for the 50% inhibitory concentration (IC50) in experiment [1] and in experiment [2] (setting [4]) were 1.38 nM and 3810 nM, respectively.

Turning to `COC(OC)c1cncc([C@@]2(O)/C=C/C[C@H](C)[C@@H](C)S(=O)(=O)NC(=O)c3ccc4c(c3)N(C[C@@H]3CC[C@H]32)C[C@@]2(CCCc3cc(Cl)ccc32)CO4)c1` (single isomer, unassigned) [Example 100507], the IC50 was 0.43 nM in experiment [1] (setting [3]) and 490 nM in experiment [2] (setting [4]).

Turning to `COC[C@]1(OC)/C=C/C[C@H](C)[C@@H](C)S(=O)(=O)NC(=O)c2ccc3c(c2)N(C[C@@H]2CC[C@H]21)C[C@@]1(CCCc2cc(Cl)ccc21)CO3` [Example 100401, (1S,3′R,6′R,7′S,8′E,11′S,12′R)-6-chloro-7′-methoxy-7′-(methoxymethyl)-11′,12′-dimethyl-3,4-dihydro-2H,15′H-spiro[naphthalene-1,22′-[20]oxa[13]thia[1,14]diazatetracyclo [14.7.2.0~3,6~.0~19,24~]pentacosa[8,16,18,24]tetraen]-15′-one 13′,13′-dioxide], the IC50 worked out at 1.8 nM in experiment [1] (setting [3]) and 8390 nM in experiment [2] (setting [4]).

With `COc1ncccc1[C@]1(OC)/C=C/C[C@H](C)[C@@H](C)S(=O)(=O)NC(=O)c2ccc3c(c2)N(C[C@@H]2CC[C@H]21)C[C@@]1(CCCc2cc(Cl)ccc21)CO3` [Example 100352, (1S,3′R,6′R,7′S,8′E,11′S,12′R)-6-chloro-7′-methoxy-7′-(2-methoxy-3-pyridinyl)-11′,12′-dimethyl-3,4-dihydro-2H,15′H-spiro[naphthalene-1,22′-[20]oxa[13]thia[1,14]diazatetracyclo [14.7.2.0~3,6~.0~19,24~]pentacosa[8,16,18,24]tetraen]-15′-one 13′,13′-dioxide], the IC50 in experiment [1] (setting [3]) turned out to be 2.75 nM; in experiment [2] (setting [4]), 246 nM.

(Values after patent US10821115B2, “Compounds that inhibit Mcl-1 protein” (priority 2017, dated 2020).)
